Measurements published in paper PMC6245188, “Isolation and Characterization of Phenolic Compounds from the Leaves of Salix matsudana” (Molecules, 2008).
Where two headings read alike, the source gives them in different places.

Legend:
COX-1 = biological target: T1, COX-1 (Ovis aries, UniProt P05979); experiment: Effect on cyclooxygenase-1 (PGE2 production from 14C-arachidonic acid, HPLC radioactivity detection); type: biochemical
T1 construct: purchased Cayman Chemical (Michigan, US)
T1 sequence (P05979 25-600): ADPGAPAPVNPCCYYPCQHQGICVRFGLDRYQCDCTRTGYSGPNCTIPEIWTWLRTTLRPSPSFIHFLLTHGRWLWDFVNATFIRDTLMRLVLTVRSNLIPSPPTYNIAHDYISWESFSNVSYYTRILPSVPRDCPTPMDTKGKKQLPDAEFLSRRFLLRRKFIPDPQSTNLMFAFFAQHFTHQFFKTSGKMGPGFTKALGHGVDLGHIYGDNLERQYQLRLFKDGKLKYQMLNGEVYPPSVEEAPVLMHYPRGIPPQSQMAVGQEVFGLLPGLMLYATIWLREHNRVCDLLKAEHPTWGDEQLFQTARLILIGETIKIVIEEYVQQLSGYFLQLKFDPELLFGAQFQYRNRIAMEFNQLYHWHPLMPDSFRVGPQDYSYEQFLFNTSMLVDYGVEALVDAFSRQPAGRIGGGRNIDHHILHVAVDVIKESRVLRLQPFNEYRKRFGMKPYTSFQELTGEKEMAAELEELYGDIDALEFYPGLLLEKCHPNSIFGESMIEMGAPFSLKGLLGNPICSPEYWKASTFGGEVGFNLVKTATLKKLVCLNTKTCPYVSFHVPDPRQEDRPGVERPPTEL
Procedure: (§1) COX-1 and COX-2 were purchased from Cayman Chemical (Michigan, US). The ^14C-labeled arachidonic acid (>200 µCi, NEN) was purchased from New England Nuclear Co. (Boston, US). Other chemicals and reagents were purchased from the Chinese Chemical Group (Beijing, P.R. China).
(§2) The effect of the tested compounds on cyclooxygenase-1 and -2 (COX-1 and -2) was determined by measuring PGE2 production. […] 1-^14C Arachidonic acid (10 µL) was added to start the reaction. The mixture was incubated for 30 min at 37 °C, then, the reaction was terminated by adding the reaction mixture (20 µL) to 30 µM indomethacin (200 µL). Arachidonic acid and its radio-labeled metabolites were separated and determined by reversed-phase HPLC using a Berthold radioactivity monitor. Inhibition refers to reduction of PGE2 formation, in comparison to a blank run without inhibitor. The results are means of three independent experiments.

COX-2 = biological target: T2, COX-2 (Homo sapiens, UniProt P35354); experiment: Effect on cyclooxygenase-2 (PGE2 production from 14C-arachidonic acid, HPLC radioactivity detection); type: biochemical; conditions: for IC50 / IC50 of COX-2: means of three determinations, 30 min at 37 °C, Tris-HCl pH 8.0, I.A. = Inactive; for inhibitory effect on COX-2 (in words): qualitative statement
T2 construct: purchased Cayman Chemical (Michigan, US)
T2 sequence (P35354 18-604): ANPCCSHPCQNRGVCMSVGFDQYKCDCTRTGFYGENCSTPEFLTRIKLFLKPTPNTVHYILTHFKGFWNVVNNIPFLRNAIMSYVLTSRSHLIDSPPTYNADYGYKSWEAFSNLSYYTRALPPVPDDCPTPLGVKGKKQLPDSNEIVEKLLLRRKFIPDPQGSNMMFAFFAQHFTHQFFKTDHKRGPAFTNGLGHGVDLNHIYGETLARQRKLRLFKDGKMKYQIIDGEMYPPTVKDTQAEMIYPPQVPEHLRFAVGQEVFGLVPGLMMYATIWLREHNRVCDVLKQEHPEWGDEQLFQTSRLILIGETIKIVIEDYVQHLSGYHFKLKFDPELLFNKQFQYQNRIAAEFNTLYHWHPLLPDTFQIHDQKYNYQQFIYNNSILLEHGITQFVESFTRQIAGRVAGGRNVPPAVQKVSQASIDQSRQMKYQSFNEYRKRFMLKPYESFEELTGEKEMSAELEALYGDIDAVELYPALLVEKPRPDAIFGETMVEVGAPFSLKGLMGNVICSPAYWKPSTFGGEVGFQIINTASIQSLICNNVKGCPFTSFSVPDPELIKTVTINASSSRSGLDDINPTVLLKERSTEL
Procedure: as §1, §2

[1] = means of three determinations, 30 min at 37 °C, Tris-HCl pH 8.0, I.A. = Inactive, read-out: IC50 of COX-1
[2] = means of three determinations, 30 min at 37 °C, Tris-HCl pH 8.0, I.A. = Inactive

SMILES	IC50 (COX-1; [1]) [µM]	IC50 (COX-2) [µM]	inhibitory effect on COX-2 (in words) (COX-2)	IC50 (COX-1) [µM]	IC50 of COX-1 (COX-1; [2])	IC50 of COX-2 (COX-2)
COc1ccc2c(=O)cc(-c3ccccc3)oc2c1 [Compound 4, 7-methoxyflavone]	99.1	169				
CC1(C)C=Cc2c(cc(O)c3c(=O)c(OC4OC(CO)C(O)C(O)C4O)c(-c4ccc(O)c(O)c4)oc23)O1 [Compound 1, 7,8-(2'', 2''-dimethylpyrano)-5, 3', 4'-trihydroxy-flavone-3-O-β-D-glucoside]	153	27.3	potent inhibitory effect			
COc1cc(O)cc(OC)c1OC1OC(CO)C(O)C(O)C1O (stereo not drawn) [Compound 7, leonuriside A]	195	200				
O=c1c(O[C@@H]2O[C@H](CO)[C@@H](O)[C@H](O)[C@H]2O)c(-c2ccc(O)c(O)c2)oc2cc(O)cc(O)c12 [Compound 3, isoquercitrin]				103		
O=c1cc(-c2ccc(O)c(O)c2)oc2cc(O)cc(O)c12 [Compound 2, luteolin]					I.A.^b	I.A.
O=c1cc(-c2ccc(O)cc2)oc2cc(O)ccc12 [Compound 6, 4',7-dihydroxyflavone]		58.8	potent inhibitory effect		I.A.	
CC(=O)c1ccc(OC2OC(CO)C(O)C(O)C2O)cc1 (stereo not drawn) [Compound 8, piceoside]	217					I.A.
O=c1cc(-c2ccc(O)c(O)c2)oc2cc(O[C@@H]3O[C@H](CO)[C@@H](O)[C@H](O)[C@H]3O)cc(O)c12 [Compound 5, luteolin 7-O-glucoside]	92.3	39.1	potent inhibitory effect			
